In patent US4424373A, “Secalonic acids” (priority 1979, dated 1984):
Values after ≈ are worked out from the molar mass of the structure shown.

How the values were obtained:
[1] = system: Bacilus subtilis CPI 219; assay: MIC against Bacilus subtilis CPI 219 (Table 6); assay type: cell-based
[2] = system: Sarcina lutea ATCC 9341; assay: MIC against Sarcina lutea ATCC 9341 (Table 6); assay type: cell-based; conditions: Micrococcus luteus, ATCC9341
[3] = system: Micrococcus flavis ATCC 10240; assay: MIC against Micrococcus flavis ATCC 10240 (Table 6); assay type: cell-based; conditions: ATCC10240
[4] = system: Trichophyton mentagrophytes IAM 8051; assay: MIC against Trichophyton mentagrophytes IAM 8051 (Table 6); assay type: cell-based; conditions: IAM8051
[5] = system: Corynebacterium diphtheriae P.W.8; assay: MIC against Corynebacterium diphtheriae P.W.8 (Table 6); assay type: cell-based

SMILES | MIC [1] [µg/mL] | MIC [2] [µg/mL] | MIC [3] [µg/mL] | MIC [4] [µg/mL] | MIC [5] [µg/mL] | solubility in chloroform
COC(=O)C12Oc3ccc(-c4ccc(O)c5c4OC4(C(=O)OC)C(=C(O)CC(C)C4O)C5=O)c(O)c3C(=O)C1=C(O)CC(C)C2O (centres unmarked) [2,4'-SD, secalonic acid D having a 2,4'-linkage] | 50 (≈ 78.3 µM) | 12.5 (≈ 19.6 µM) | 25 (≈ 39.1 µM) | 3.1 (≈ 4.85 µM) | 12.5 (≈ 19.6 µM) | –
COC(=O)[C@]12Oc3ccc(-c4ccc5c(c4O)C(=O)C4=C(O)C[C@@H](C)[C@H](OC=O)[C@@]4(C(=O)OC)O5)c(O)c3C(=O)C1=C(O)C[C@@H](C)[C@@H]2OC=O [diformyl derivative of Compound I, diformyl derivative of secalonic acid A having a 2,2'-linkage] | – | – | – | – | – | soluble
COC(=O)C12Oc3c(-c4ccc(O)c5c4OC4(C(=O)OC)C(=C(O)CC(C)C4O)C5=O)ccc(O)c3C(=O)C1=C(O)CC(C)C2O (centres unmarked) [4,4'-SD, secalonic acid D having a 4,4'-linkage] | 12.5 (≈ 19.6 µM) | 3.1 (≈ 4.85 µM) | 12.5 (≈ 19.6 µM) | 1.6 (≈ 2.51 µM) | 6.3 (≈ 9.87 µM) | –
COC(=O)C12Oc3ccc(-c4ccc5c(c4O)C(=O)C4=C(O)CC(C)C(O)C4(C(=O)OC)O5)c(O)c3C(=O)C1=C(O)CC(C)C2O (centres unmarked) [2,2'-SD, secalonic acid D having a 2,2'-linkage, reference compound] | > 100 | > 100 | 100 (≈ 157 µM) | 12.5 (≈ 19.6 µM) | 50 (≈ 78.3 µM) | –
COC(=O)C12Oc3ccc(-c4ccc5c(c4O)C(=O)C4=C(O)CC(C)C(O)C4(C(=O)OC)O5)c(O)c3C(=O)C1=C(O)CC(C)C2O (single isomer, unassigned) [Compound I, secalonic acid A having a 2,2'-linkage, reference compound] | – | – | – | – | – | insoluble
